# Assay results as given in article PMC8037569, “Neuroprotective Effect of Aurantio-Obtusin, a Putative Vasopressin V1A Receptor Antagonist, on Transient Forebrain Ischemia Mice Model” (International Journal of Molecular Sciences, 2021).
# Legend:
# hV1AR = biological target: T1, hV1AR (Homo sapiens, UniProt P37288); test: GPCR functional assay: intracellular Ca2+ mobilization in transfected CHO cells; format: cell-based
# T1 construct: host or cells: CHO
# hNK1R = biological target: T2, hNK1R (Homo sapiens, UniProt P25103); test: GPCR functional assay: intracellular Ca2+ mobilization in U373MG cells; format: cell-based
# T2 construct: Human endogenous (U373MG cells); host or cells: U373MG
# rat = system: rat; set-up: method as in PMID 31547563; conditions: cited from earlier work
# h5-HT1AR = biological target: T3, h5-HT1AR (Homo sapiens, UniProt P08908); test: GPCR functional assay: intracellular Ca2+ mobilization in Ba/F3 cells; format: cell-based
# T3 construct: host or cells: Ba/F3 (murine pro-B)
# T3 sequence (P08908 1-422): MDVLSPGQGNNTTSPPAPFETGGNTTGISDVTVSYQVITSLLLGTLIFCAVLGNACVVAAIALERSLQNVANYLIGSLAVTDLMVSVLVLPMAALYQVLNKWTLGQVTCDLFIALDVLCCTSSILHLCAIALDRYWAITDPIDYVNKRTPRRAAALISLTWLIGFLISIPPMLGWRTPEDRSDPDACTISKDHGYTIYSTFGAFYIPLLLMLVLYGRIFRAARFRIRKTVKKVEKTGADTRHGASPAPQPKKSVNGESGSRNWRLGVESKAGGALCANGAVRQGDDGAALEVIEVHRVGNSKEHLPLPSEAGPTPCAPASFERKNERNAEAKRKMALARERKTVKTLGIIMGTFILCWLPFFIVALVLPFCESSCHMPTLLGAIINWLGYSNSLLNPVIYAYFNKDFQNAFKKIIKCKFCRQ
# [1] = system: angiotensin-converting enzyme (ACE); set-up: method as in PMID 18803227; conditions: cited from earlier work
# C57BL/6 mice = test: Transient forebrain ischemia (BCCAO) mice model, overall effect and tolerability; format: in vivo
# Description: […]. The animals were housed five per cage, allowed access to water and food ad libitum; the environment was maintained at a constant temperature (23 ± 1 °C) and humidity (60 ± 10%) under a 12-h light/dark cycle (the lights were on from 07:30 to 19:30 h). Forty mice were divided equally into four groups (sham + vehicle, n = 10; sham + drug, n = 10; bilateral common carotid artery occluded ischemia + vehicle, n = 10; bilateral common carotid artery occluded ischemia + drug, n = 10) for experiment. The treatment and maintenance of the animals were carried out in accordance with the Animal Care and Use Guidelines of Dong-A University, Korea. All in vivo experiments were performed according to the protocols approved by the Institutional Animal Care and Use Committee of Dong-A University (approved protocol numbers: DIACUC-approved-17-20) and were in accordance with the National Institutes of Health guidelines.
# C57BL/6 mice were anesthetized with 2.0% isoflurane and 70% nitrous oxide in oxygen and subjected to transient forebrain ischemia. The transient forebrain ischemia was induced by bilateral common carotid artery occlusion (BCCAO) with aneurysm clips for 20 min, and the circulation was restored by removing the clips. […] The regional cerebral blood flow (rCBF) was monitored using laser Doppler flowmetry (Perimed, PF5010, JarFalla, Sweden). […]
# hD3 receptor = biological target: T4, hD3 receptor (Homo sapiens, UniProt P35462); test: GPCR functional assay: cAMP modulation by HTRF in transfected CHO cells; format: cell-based; conditions: 100 µM test compound
# T4 construct: host or cells: CHO
# T4 sequence (P35462 whole entry): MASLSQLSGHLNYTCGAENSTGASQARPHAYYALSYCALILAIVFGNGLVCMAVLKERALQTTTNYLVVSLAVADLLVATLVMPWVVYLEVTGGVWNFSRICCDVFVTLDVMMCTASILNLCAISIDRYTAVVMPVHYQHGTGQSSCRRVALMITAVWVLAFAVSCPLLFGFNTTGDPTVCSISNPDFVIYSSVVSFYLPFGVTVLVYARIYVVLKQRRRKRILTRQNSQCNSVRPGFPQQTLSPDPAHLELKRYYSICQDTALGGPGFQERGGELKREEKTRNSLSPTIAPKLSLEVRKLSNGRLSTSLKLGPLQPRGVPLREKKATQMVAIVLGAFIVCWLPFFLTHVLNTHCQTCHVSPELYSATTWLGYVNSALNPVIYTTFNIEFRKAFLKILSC
# T1 sequence (P37288 whole entry): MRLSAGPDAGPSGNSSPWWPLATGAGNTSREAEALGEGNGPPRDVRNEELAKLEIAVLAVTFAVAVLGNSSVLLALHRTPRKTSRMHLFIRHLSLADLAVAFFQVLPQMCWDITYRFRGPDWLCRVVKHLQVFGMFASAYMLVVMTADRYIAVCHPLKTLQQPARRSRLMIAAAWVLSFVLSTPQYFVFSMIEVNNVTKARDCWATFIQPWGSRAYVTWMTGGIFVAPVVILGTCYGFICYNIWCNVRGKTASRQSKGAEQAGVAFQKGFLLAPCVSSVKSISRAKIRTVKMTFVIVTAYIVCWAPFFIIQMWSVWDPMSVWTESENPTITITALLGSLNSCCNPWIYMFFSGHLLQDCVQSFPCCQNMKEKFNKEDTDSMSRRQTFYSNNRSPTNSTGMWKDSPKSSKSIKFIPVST
# T2 sequence (P25103 whole entry): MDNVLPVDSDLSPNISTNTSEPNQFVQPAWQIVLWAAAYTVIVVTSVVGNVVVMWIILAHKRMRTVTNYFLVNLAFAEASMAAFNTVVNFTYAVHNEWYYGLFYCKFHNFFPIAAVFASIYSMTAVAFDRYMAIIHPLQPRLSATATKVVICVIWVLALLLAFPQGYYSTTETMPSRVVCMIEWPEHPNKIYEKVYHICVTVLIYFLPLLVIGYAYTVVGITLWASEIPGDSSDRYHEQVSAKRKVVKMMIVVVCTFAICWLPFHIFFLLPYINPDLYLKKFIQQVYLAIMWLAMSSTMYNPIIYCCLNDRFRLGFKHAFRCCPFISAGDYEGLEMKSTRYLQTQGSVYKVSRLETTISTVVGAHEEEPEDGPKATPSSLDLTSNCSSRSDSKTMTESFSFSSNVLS
structure (smiles),measurement,setting,value
"COc1c(O)cc2c(c1O)C(=O)c1c(cc(C)c(O)c1OC)C2=O [Aurantio-obtusin, 1,3,7-trihydroxy-2,8-dimethoxy-6-methylanthracene-9,10-dione]","% Stimulation (agonist effect) of control agonist response, V1A (h)","hV1AR; 100 µM test compound, control response to 1 μM AVP",−33.20 ± 2.69%
same,inhibition at 100 µM,"hV1AR; CHO, 100 µM test compound, control response to 10 nM AVP, read-out: % Inhibition (antagonist effect) of control agonist response, V1A (h) (converted)",71.8%
same,IC50,"hV1AR; concentrations up to 100 µM, control response to 10 nM AVP, read-out: V1AR antagonist effect IC50",67.7 ± 2.41 µM
same,"% Stimulation (agonist effect) of control agonist response, NK1 (h)","hNK1R; 100 µM test compound, control response to 30 nM [Sar9, Met(O2)11]-SP",−6.40 ± 0.00%
same,inhibition at 100 µM,"hNK1R; U373 MG, read-out: % Inhibition (antagonist effect) of control agonist response, NK1 (h) (converted)",47.6%
same,Dose causing hepatoxicity,rat,> 40 mg/kg
same,"% Stimulation (agonist effect) of control agonist response, 5-HT1A (h)","h5-HT1AR; 100 µM test compound, control response to serotonin (2.5 μM)",−6.10 ± 0.00%
same,inhibition at 100 µM,"h5-HT1AR; BaF3, read-out: % Inhibition (antagonist effect) of control agonist response, 5-HT1A (h) (converted)",10.1%
same,Inhibition of ACE activity,[1],no activity
same,Toxicity of treatment alone (sham + drug),"C57BL/6 mice; 10 mg/kg, p.o., once daily, compared to sham group",no toxicity
same,"Effect in BCCAO model, pilot study","C57BL/6 mice; 1, 5 and 10 mg/kg tested, result for 10 mg/kg",effective
same,"% Stimulation (agonist effect) of control agonist response, D3 (h)",hD3 receptor; control response to 300 nM dopamine,33.00 ± 1.84%
same,inhibition at 100 µM,"hD3 receptor; CHO, agonist response of 10 nM dopamine, read-out: % Inhibition (antagonist effect) of control agonist response, D3 (h) (converted)",-2.3%
